Experimental data: patent US7473688B2, “Indolobenzazepine HCV NS5B inhibitors” (Bristol-Myers Squibb Company, priority 2005, dated 2009)
Where two headings read alike, the source gives them in different places.

Legend:
HCV NS5B = molecular target: T1, HCV NS5B (Hepatitis C virus genotype 1b, UniProt Q9WMX2); assay: HCV NS5B RdRp enzyme assay (preincubation protocol); format: biochemical
T1 construct: The protein was expressed with an 18 amino acid C-terminal truncation to enhance the solubility; made in house; host or cells: E. coli BL21 (DE3), pET21a
Summary of the method: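 C-terminally truncated (Δ18) genotype 1b NS5B from E. coli, 14 nM, added to compound, then polyA template (0.2 nM), 3H-UTP (0.29 μM) and oligo-dT12 primer precaptured on streptavidin SPA beads. 4 h at 30 °C, pH 7.5, 2% DMSO; SPA readout; IC50 from seven concentrations by logistic fit.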

HCV replicon = HCV replicon FRET assay; format: cell-based; conditions: Hepatitis C virus, FRET assay, read-out: EC50*
Excerpt: FRET Assay Preparation. To perform the HCV FRET screening assay, 96-well cell culture plates were used. The FRET peptide (Anaspec, Inc.) (Taliani et al., Anal. Biochem. 1996, 240, 60-67) contains a fluorescence donor, EDANS, near one end of the peptide and an acceptor, DABCYL, near the other end. The fluorescence of the peptide is quenched by […] resonance energy transfer (RET) between the donor and the acceptor, but as the NS3 protease cleaves the peptide the products are released from RET quenching and the fluorescence of the donor becomes apparent. The assay reagent was made as follows: 5× cell Luciferase cell culture lysis reagent from Promega (#E153A) diluted to 1× with dH2O, NaCl added to 150 mM final, the FRET peptide diluted to 20 uM final from a 2 mM stock.
To prepare plates, HCV replicon cells, with or without a Renilla luciferase reporter gene, were trypsinized and placed into each well of a 96-well plate with titrated test compounds added in columns 3 through 12; columns 1 and 2 contained a control compound (HCV protease inhibitor), and the bottom row contained cells without compound. The plates were then placed in a CO2 incubator at 37° C.
Assays. Subsequent to addition of the test compounds described above (FRET Assay Preparation), at various times the plate was removed and Alamar blue solution (Trek Diagnostics, #00-100) was added per well as a measure of cellular toxicity. After reading in a Cytoflour 4000 instrument (PE Biosystems), plates were rinsed with PBS and then used for FRET assay by the addition of 30 ul of the FRET peptide assay reagent described above (FRET Assay Preparation) per well. The plate was then placed into the Cytoflour 4000 instrument which had been set to 340 excite/490 emission, automatic mode for 20 cycles and the plate read in a kinetic mode. Typically, the signal to noise using an endpoint analysis after the reads was at least three-fold. Alternatively, after Alamar blue reading, plates were rinsed with PBS, 50 ul of DMEM (high glucose) without phenol red was added and plates were then used for luciferase assay using the Promega Dual-Glo Luciferase Assay System.
Compound analysis was determined by quantification of the relative HCV replicon inhibition and the relative cytotoxicity values. To calculate cytoxicity values, the average Alamar Blue fluorescence signals from the control wells were set as 100% non-toxic. The individual signals in each of the compound test wells were then divided by the average control signal and multiplied by 100% to determine […]. To calculate the HCV replicon inhibition values, an average background value was obtained from the two wells containing the highest amount of HCV protease inhibitor at the end of the assay period. These numbers were similar to those obtained from naïve Huh-7 cells.
The background numbers were then subtracted from the average signal obtained from the control wells and this number was used as 100% activity. The individual signals in each of the compound test wells were then divided by the averaged control values after background subtraction and multiplied by 100% to determine percent activity. EC50 values for a protease inhibitor titration were calculated as the concentration which caused a 50% reduction in FRET or luciferase activity. The two numbers generated for the compound plate, percent cytoxicity and percent activity were used to determine compounds of interest for further analysis.

T1 sequence (Q9WMX2 2420-2992): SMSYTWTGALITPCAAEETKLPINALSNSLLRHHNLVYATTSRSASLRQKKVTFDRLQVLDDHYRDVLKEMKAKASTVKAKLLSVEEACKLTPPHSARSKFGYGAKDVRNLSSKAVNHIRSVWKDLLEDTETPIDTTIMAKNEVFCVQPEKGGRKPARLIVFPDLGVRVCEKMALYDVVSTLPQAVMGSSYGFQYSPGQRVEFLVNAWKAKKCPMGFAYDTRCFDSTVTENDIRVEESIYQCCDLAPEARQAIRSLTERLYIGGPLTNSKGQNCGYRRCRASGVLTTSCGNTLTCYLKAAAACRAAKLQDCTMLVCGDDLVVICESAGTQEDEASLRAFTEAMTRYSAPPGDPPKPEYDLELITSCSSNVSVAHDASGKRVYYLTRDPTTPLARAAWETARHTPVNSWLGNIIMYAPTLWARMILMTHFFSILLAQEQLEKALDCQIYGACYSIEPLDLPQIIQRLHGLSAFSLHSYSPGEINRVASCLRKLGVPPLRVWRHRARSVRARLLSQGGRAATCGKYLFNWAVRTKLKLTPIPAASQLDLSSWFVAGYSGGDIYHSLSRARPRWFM

Row | Compound | IC50 (HCV NS5B; Table 1, read-out: IC50*) [µM] | EC50 (HCV replicon; Table 1) [µM] | further results
1 | COc1ccc2c(c1)C=C(C(=O)N(C)CCN(C)C(C)=O)Cn1c-2c(C2CCCCC2)c2ccc(C(=O)NS(=O)(=O)N(C)C)cc21 |  |  | IC50 (HCV NS5B; Table 1a, read-out: IC50*): 0.01 to 1 µM; EC50 (HCV replicon; Table 1a): 0.03 to 1 µM
2 | CN(C)S(=O)(=O)NC(=O)c1ccc2c(C3CCCCC3)c3n(c2c1)CC(C(=O)N1CCN(c2ncccn2)CC1)=Cc1ccccc1-3 | 0.01 to 1 | 0.07 to 1 | 
3 | COc1ccc2c(c1)C=C(C(=O)N1CCC(N3CCOCC3)CC1)Cn1c-2c(C2CCCCC2)c2ccc(C(=O)O)cc21 | 0.01 to 1 | 0.07 to 1 | 
4 | CN(C)S(=O)(=O)NC(=O)c1ccc2c(C3CCCCC3)c3n(c2c1)CC(C(=O)N1CCN2C(=O)c4ccccc4C2C1)=Cc1ccccc1-3 (stereo not drawn) | 0.01 to 1 | 0.07 to 1 | 
5 | COc1ccc2c(c1)CC(NC(=O)N(C)CC1CCOCC1)Cn1c-2c(C2CCCCC2)c2ccc(C(=O)NS(=O)(=O)N(C)C)cc21 (stereo not drawn) |  |  | IC50 (HCV NS5B; Table 1b, read-out: IC50*): 0.02 to 1 µM; EC50 (HCV replicon; Table 1b): 0.03 to 1 µM
6 | COc1ccc2c(c1)CC(NC(=O)N1CCC(N3CCOCC3)CC1)Cn1c-2c(C2CCCCC2)c2ccc(C(=O)NS(=O)(=O)N(C)C)cc21 (stereo not drawn) |  |  | IC50 (HCV NS5B; Table 1a, read-out: IC50*): 0.01 to 1 µM; EC50 (HCV replicon; Table 1a): 0.03 to 1 µM
7 | COc1ccc2c(c1)C=C(C(=O)N[C@@H]1C3CCC(C)([C@@H]1O)C3(C)C)Cn1c-2c(C2CCCCC2)c2ccc(C(=O)NS(=O)(=O)N(C)C)cc21 (stereo partly drawn) |  |  | IC50 (HCV NS5B; Table 1b, read-out: IC50*): 0.02 to 1 µM; EC50 (HCV replicon; Table 1b): 0.03 to 1 µM
8 | COc1ccc2c(c1)CC(C(=O)N1CCN(C(=O)C(C)(C)O)CC1)Cn1c-2c(C2CCCCC2)c2ccc(C(=O)NS(=O)(=O)N(C)C)cc21 (stereo not drawn) |  |  | IC50 (HCV NS5B; Table 1b, read-out: IC50*): 0.02 to 1 µM; EC50 (HCV replicon; Table 1b): 0.03 to 1 µM
9 | COc1ccc2c(c1)C=C(C(=O)N(C)[C@H](C(=O)N1CCOCC1)C(C)C)Cn1c-2c(C2CCCCC2)c2ccc(C(=O)NS(=O)(=O)N(C)C)cc21 |  |  | IC50 (HCV NS5B; Table 1b, read-out: IC50*): 0.02 to 1 µM; EC50 (HCV replicon; Table 1b): 0.03 to 1 µM
10 | CCOC(=O)[C@H]1C[C@@H](O)CN1C(=O)C1=Cc2cc(OC)ccc2-c2c(C3CCCCC3)c3ccc(C(=O)NS(=O)(=O)N(C)C)cc3n2C1 |  |  | IC50 (HCV NS5B; Table 1a, read-out: IC50*): < 0.02 µM; EC50 (HCV replicon; Table 1a): 0.03 to 1 µM
11 | CN(C)S(=O)(=O)NC(=O)c1ccc2c(C3CCCCC3)c3n(c2c1)CC(C(=O)N1CCN(C(=O)C2COc4ccccc4O2)CC1)=Cc1ccccc1-3 (stereo not drawn) | 0.01 to 1 | 0.07 to 1 | 
12 | COc1ccc2c(c1)C=C(C(=O)N1CCOCC1)Cn1c-2c(C2CCCCC2)c2ccc(C(=O)NS(=O)(=O)c3ccc(C)cn3)cc21 |  |  | IC50 (HCV NS5B; Table 1b, read-out: IC50*): 0.02 to 1 µM; EC50 (HCV replicon; Table 1b): 0.03 to 1 µM
13 | COc1ccc2c(c1)C=C(C(=O)N(C)Cc1nccs1)Cn1c-2c(C2CCCCC2)c2ccc(C(=O)NS(=O)(=O)N(C)C)cc21 |  |  | IC50 (HCV NS5B; Table 1b, read-out: IC50*): < 0.02 µM; EC50 (HCV replicon; Table 1b): 0.03 to 1 µM
14 | COc1ccc2c(c1)CC(NC(=O)N(C)CC(=O)N(C)C)Cn1c-2c(C2CCCCC2)c2ccc(C(=O)NS(=O)(=O)N(C)C)cc21 (stereo not drawn) |  |  | IC50 (HCV NS5B; Table 1a, read-out: IC50*): 0.01 to 1 µM; EC50 (HCV replicon; Table 1a): 0.03 to 1 µM
15 | COC(=O)c1ccc2c(C3CCCCC3)c3n(c2c1)CC(NC(=O)N1CCC(N2CCOCC2)CC1)Cc1ccccc1-3 (stereo not drawn) | 0.01 to 1 | > 0.12 | 
16 | CN(C)S(=O)(=O)NC(=O)c1ccc2c(C3CCCCC3)c3n(c2c1)CC(C(=O)N1CCN(S(C)(=O)=O)CC1)=Cc1ccccc1-3 | 0.01 to 1 | 0.07 to 1 | 
17 | CN(C)S(=O)(=O)NC(=O)c1ccc2c(C3CCCCC3)c3n(c2c1)CC(C(=O)N1CCN(C(=O)OC(C)(C)C)CC1)=Cc1ccccc1-3 | 0.01 to 1 | 0.07 to 1 | 
18 | O=C(O)C1=Cc2ccccc2-c2c(C3CCCCC3)c3ccc(C(=O)NS(=O)(=O)N4CCOCC4)cc3n2C1 | 0.01 to 1 | > 10 | 

Row | Compound | IC50 (HCV NS5B; Table 1, read-out: IC50*) [µM] | EC50 (HCV replicon; Table 1) [µM] | further results
19 | CN(C)S(=O)(=O)NC(=O)c1ccc2c(C3CCCCC3)c3n(c2c1)CC(C(=O)N1CCN(S(=O)(=O)c2ccccc2)CC1)=Cc1ccccc1-3 | 0.01 to 1 | 0.07 to 1 | 
20 | COc1ccc2c(c1)CC(NC(=O)N1CCC(C(N)=O)C1)Cn1c-2c(C2CCCCC2)c2ccc(C(=O)NS(=O)(=O)N(C)C)cc21 (stereo not drawn) |  |  | IC50 (HCV NS5B; Table 1b, read-out: IC50*): 0.02 to 1 µM; EC50 (HCV replicon; Table 1b): 0.03 to 1 µM
21 | COC(=O)C1=Cc2ccccc2-c2c(C3CCCCC3)c3ccc(C(=O)NS(=O)(=O)N4CCOCC4)cc3n2C1 | 0.01 to 1 | 0.07 to 1 | 
22 | O=C(NS(=O)(=O)N1CCOCC1)c1ccc2c(C3CCCCC3)c3n(c2c1)CC(C(=O)N1CCOCC1)=Cc1ccccc1-3 | 0.01 to 1 | 0.07 to 1 | 
23 | COc1ccc2c(c1)C=C(C(=O)N1C[C@@H](C)N(C(C)=O)[C@@H](C)C1)Cn1c-2c(C2CCCCC2)c2ccc(C(=O)NS(=O)(=O)N(C)C)cc21 |  |  | IC50 (HCV NS5B; Table 1a, read-out: IC50*): 0.01 to 1 µM; EC50 (HCV replicon; Table 1a): 0.03 to 1 µM
24 | CN(C)S(=O)(=O)NC(=O)c1ccc2c(C3CCCCC3)c3n(c2c1)CC(C(=O)N1CCOC(c2ccccc2)C1)=Cc1ccccc1-3 (stereo not drawn) | 0.01 to 1 | 1 to 10 | 
25 | COc1ccc2c(c1)C[C@H](NC(=O)N(C)CC(=O)N(C)C)Cn1c-2c(C2CCCCC2)c2ccc(C(=O)NS(=O)(=O)N(C)C)cc21 |  |  | IC50 (HCV NS5B; Table 1b, read-out: IC50*): 0.02 to 1 µM; EC50 (HCV replicon; Table 1b): 0.03 to 1 µM
26 | COCCN(CCOC)C(=O)C1=Cc2ccccc2-c2c(C3CCCCC3)c3ccc(C(=O)NS(=O)(=O)N(C)C)cc3n2C1 | 0.01 to 1 | 0.07 to 1 | 
27 | COC(=O)c1ccc2c(C3CCCCC3)c3n(c2c1)CC(C(=O)N1CCC(N2CCOCC2)CC1)=Cc1cc(OC)ccc1-3 | > 1 | 1 to 10 | 
28 | CN1CCC2(CC1)CN(C(=O)C1=Cc3ccccc3-c3c(C4CCCCC4)c4ccc(C(=O)O)cc4n3C1)C2 | 0.01 to 1 | 0.07 to 1 | 
29 | COc1ccc2c(c1)CC(NC(=O)N1CCN(C(N)=O)CC1)Cn1c-2c(C2CCCCC2)c2ccc(C(=O)NS(=O)(=O)N(C)C)cc21 (stereo not drawn) |  |  | IC50 (HCV NS5B; Table 1a, read-out: IC50*): 0.01 to 1 µM; EC50 (HCV replicon; Table 1a): 0.03 to 1 µM
30 | CN(C)S(=O)(=O)NC(=O)c1ccc2c(C3CCCCC3)c3n(c2c1)CC(C(=O)N1CCC(N2CCCC(F)(F)C2)CC1)=Cc1ccccc1-3 | 0.01 to 1 | 0.07 to 1 | 
31 | COc1ccc2c(c1)C=C(C(=O)N1CCN(C(=O)C3(O)CC3)CC1)Cn1c-2c(C2CCCCC2)c2ccc(C(=O)NS(=O)(=O)N(C)C)cc21 |  |  | IC50 (HCV NS5B; Table 1b, read-out: IC50*): 0.02 to 1 µM; EC50 (HCV replicon; Table 1b): 0.03 to 1 µM
32 | CN(C)S(=O)(=O)NC(=O)c1ccc2c(C3CCCCC3)c3n(c2c1)CC(C(=O)N1CCCC(C(N)=O)C1)=Cc1ccccc1-3 (stereo not drawn) | 0.01 to 1 | 0.07 to 1 | 
33 | COc1ccc2c(c1)CC(NC(=O)N1C[C@@H](C)N(C(C)=O)[C@@H](C)C1)Cn1c-2c(C2CCCCC2)c2ccc(C(=O)NS(=O)(=O)N(C)C)cc21 (stereo partly drawn) |  |  | IC50 (HCV NS5B; Table 1a, read-out: IC50*): 0.01 to 1 µM; EC50 (HCV replicon; Table 1a): 0.03 to 1 µM
34 | COc1ccc2c(c1)CC(NC(=O)N1CCS(=O)(=O)CC1)Cn1c-2c(C2CCCCC2)c2ccc(C(=O)NS(=O)(=O)N(C)C)cc21 (stereo not drawn) |  |  | IC50 (HCV NS5B; Table 1a, read-out: IC50*): 0.01 to 1 µM; EC50 (HCV replicon; Table 1a): 0.03 to 1 µM
35 | CN(C)S(=O)(=O)NC(=O)c1ccc2c(C3CCCCC3)c3n(c2c1)CC(C(=O)N1CCC(n2ccnn2)CC1)=Cc1ccccc1-3 | 0.01 to 1 | 0.07 to 1 | 
36 | COc1ccc2c(c1)C=C(C(=O)N1CCOC(CO)C1)Cn1c-2c(C2CCCCC2)c2ccc(C(=O)NS(=O)(=O)N(C)C)cc21 (stereo not drawn) |  |  | IC50 (HCV NS5B; Table 1a, read-out: IC50*): 0.01 to 1 µM; EC50 (HCV replicon; Table 1a): 0.03 to 1 µM
